Laboratory results reported in article PMC12247511, “Evolutionary diversification of acyl-CoA synthetases underpins hydrophobic barrier formation across diverse tomato tissues and beyond” (Horticulture Research, 2025).

Legend:
MvLACS = system: T1, MvLACS; assay: coupled myokinase/pyruvate kinase/lactate dehydrogenase assay, NADH at […] nm; format: biochemical, Mesostigma viride; conditions: 0.1 M Tris-HCl pH 7.5, 30 °C, 5 mM ATP, 0.5 mM CoA, 10 mM MgCl2, 2 mM DTT; fatty acid 0-1 mM from stock in 5% Triton X-100
T1 construct: full-length ORF, His-tagged (pET28b, BamHI/SalI), E. coli Rosetta 2 (DE3), Ni-NTA

SlLACS2 = molecular target: T2, SlLACS2 (Solanum lycopersicum, UniProt Z9EVN9B4R8); assay: as above; format: biochemical; conditions: 0.1 M Tris-HCl pH 7.5, 30 °C, 5 mM ATP, 0.5 mM CoA, 10 mM MgCl2, 2 mM DTT; fatty acid 0-1 mM from stock in 5% Triton X-100
T2 construct: full-length ORF, His-tagged (pET28b, BamHI/SalI), E. coli Rosetta 2 (DE3), Ni-NTA
T2 sequence (Z9EVN9B4R8 1-659): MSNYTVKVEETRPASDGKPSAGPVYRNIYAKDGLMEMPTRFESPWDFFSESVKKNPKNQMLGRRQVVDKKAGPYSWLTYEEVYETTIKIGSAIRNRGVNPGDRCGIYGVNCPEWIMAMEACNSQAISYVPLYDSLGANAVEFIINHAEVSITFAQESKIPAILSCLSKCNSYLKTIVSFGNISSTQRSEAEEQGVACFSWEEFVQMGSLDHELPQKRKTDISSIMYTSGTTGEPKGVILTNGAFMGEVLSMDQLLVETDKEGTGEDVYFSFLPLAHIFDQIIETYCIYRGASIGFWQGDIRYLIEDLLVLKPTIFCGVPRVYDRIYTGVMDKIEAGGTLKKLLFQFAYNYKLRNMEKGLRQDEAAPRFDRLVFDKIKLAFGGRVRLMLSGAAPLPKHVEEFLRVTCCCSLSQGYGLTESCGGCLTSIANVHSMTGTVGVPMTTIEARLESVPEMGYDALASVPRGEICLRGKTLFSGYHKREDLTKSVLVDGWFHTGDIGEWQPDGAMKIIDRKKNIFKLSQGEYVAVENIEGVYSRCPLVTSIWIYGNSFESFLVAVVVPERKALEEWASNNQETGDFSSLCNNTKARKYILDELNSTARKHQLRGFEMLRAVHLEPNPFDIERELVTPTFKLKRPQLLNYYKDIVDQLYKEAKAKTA

MeLACS = system: T3, MeLACS; assay: as above; format: biochemical, Mesotaenium endlicherianum; conditions: 0.1 M Tris-HCl pH 7.5, 30 °C, 5 mM ATP, 0.5 mM CoA, 10 mM MgCl2, 2 mM DTT; fatty acid 0-1 mM from stock in 5% Triton X-100
T3 construct: full-length ORF, His-tagged (pET28b, BamHI/SalI), E. coli Rosetta 2 (DE3), Ni-NTA

purified protein [1] = substrate: CCCCCCCCCCCCCCCCCC(=O)O; assay: purified protein; format: biochemical, Solanum lycopersicum; conditions: 0.1 M Tris-HCl pH 7.5, 30 °C, 5 mM ATP, 0.5 mM CoA, 10 mM MgCl2, 2 mM DTT, fatty acid 0-1 mM from stock in 5% Triton X-100
purified protein [2] = substrate: CCCCCCCCCCCCCCCC(=O)O; assay: purified protein; format: biochemical, Solanum lycopersicum; conditions: 0.1 M Tris-HCl pH 7.5, 30 °C, 5 mM ATP, 0.5 mM CoA, 10 mM MgCl2, 2 mM DTT, fatty acid 0-1 mM from stock in 5% Triton X-100

`CCCCCCCCCCCCCCCC(=O)O` [palmitate (C16:0)] gave a Km (MvLACS) of about 32 µM, a Km (SlLACS2) of about 7 µM and a Km (MeLACS) of about 180 µM.

Work on `CCCCCCCCCCCCCCCCCC(=O)O` [sterate (C18:0)] yielded a Km (MvLACS) of about 40 µM, a Km (SlLACS2) of about 6 µM and a Km (MeLACS) of about 166 µM.

B1: SlLACS1 (Solanum lycopersicum) (protein)
chain: MSMNKFGLKVEEGKEGKNGEPSIGPVYRNPIAKNGFPSADPDLSTAWQLFRSAVEKYPGNRMLGWRDFKDGKWGPYNWKTYKEAYEETLQTGSALRAHGIEPGARIGIYGANCPQWIVAMEACSAHSLICVPLYDTLGSGAVDFIIEHAEIDIVFVQDKKVKELLNAECTHAKRLKLIVCFTLLQQEEKDKAVSMNIKPYSWNEFLNMGKENPSEPSPPQPLDICTIMYTSGTSGEPKGVILTHENMTASVTGVDHFMEEFEDKMTVDDVYISFLPLAHILDRMIEEFFFHRGASVGYFHGNINEIQEDMMELKPTFLAGVPRVYEKVHEGVLKALEELNPFRRHMFHVLYNFKLKWMNLGYKQKYASRLADLLAFRKVKNRLGGRIRLIVSGGAPLSTEVEEFLRVTSCGFVLQGYGLTETCGLATIGHPDEMCMLGTVGPPFVFTEVRLEEVPEMGYDPLADPSRGEICVRGRTTFTGYYKNPELTREAIKDGWFHTGDIGEMMPNGVVKVIDRKKNVIKLSQGEYVALEYLEKVYAIAPIVEDIWVYGDSFKSMLIAVVAPHEGNTKKWADKNGHKGSITELCSLQDLNQYVLLELKSAAERNKLRGFENIKGVILEPQPFEFDKELVTATMKKRRERLLKRYKLEIDDLYKRLNAAAKR
notes: full-length ORF, His-tagged (pET28b, BamHI/SalI), E. coli Rosetta 2 (DE3), Ni-NTA
B1 gave a Km (purified protein [1]) of 9.6 ± 1.4 µM, a kcat (purified protein [1]) of 0.08 ± 0.0033 s⁻¹ and a Km (purified protein [2]) of 42.4 ± 3.8 µM. The kcat (purified protein [2]) was 0.102 ± 0.01 s⁻¹.
